Measurements taken from patent US7417156B2, “Orally active, antimalarial, anticancer, artemisinin-derived trioxane dimers” (Johns Hopkins University, priority 2002, dated 2008).

How the values were obtained:
60 cell line panel = assay type: cell-based
K-562 = test: NCI 60 cell line panel screen (SRB); assay type: cell-based, human
RPMI-8226 = test: NCI 60 cell line panel screen (SRB); assay type: cell-based, human
A549/ATCC = test: NCI 60 cell line panel screen (SRB); assay type: cell-based, human
HOP-62 = test: NCI 60 cell line panel screen (SRB); assay type: cell-based, human
HOP-92 = test: NCI 60 cell line panel screen (SRB); assay type: cell-based, human
NCI-H23 = test: NCI 60 cell line panel screen (SRB); assay type: cell-based, human
NCI-H322M = assay type: cell-based
HCT-116 = test: NCI 60 cell line panel screen (SRB); assay type: cell-based, human
HT29 = test: NCI 60 cell line panel screen (SRB); assay type: cell-based, human
SF-268 = test: NCI 60 cell line panel screen (SRB); assay type: cell-based, human
SF-539 = test: NCI 60 cell line panel screen (SRB); assay type: cell-based, human
SNB-75 = test: NCI 60 cell line panel screen (SRB); assay type: cell-based, human; conditions: SNB-75 (CNS Cancer)
U251 = test: NCI 60 cell line panel screen (SRB); assay type: cell-based, human
MALME-3M = test: NCI 60 cell line panel screen (SRB); assay type: cell-based, human
M14 = test: NCI 60 cell line panel screen (SRB); assay type: cell-based, human
SK-MEL-28 = test: NCI 60 cell line panel screen (SRB); assay type: cell-based, human
IGROVI = test: NCI 60 cell line panel screen (SRB); assay type: cell-based, human; conditions: IGROVI (Ovarian Cancer)
OVCAR-3 = test: NCI 60 cell line panel screen (SRB); assay type: cell-based, human
OVCAR-8 = test: NCI 60 cell line panel screen (SRB); assay type: cell-based, human
SK-OV-3 = test: NCI 60 cell line panel screen (SRB); assay type: cell-based, human
TK-10 = test: NCI 60 cell line panel screen (SRB); assay type: cell-based, human
PC-3 = test: NCI 60 cell line panel screen (SRB); assay type: cell-based, human
NCI/ADR-RES = test: NCI 60 cell line panel screen (SRB); assay type: cell-based, human
MDA-MB231/ATCC = test: NCI 60 cell line panel screen (SRB); assay type: cell-based, human
MDA-MB-435 = test: NCI 60 cell line panel screen (SRB); assay type: cell-based, human
BT-549 = test: NCI 60 cell line panel screen (SRB); assay type: cell-based, human
T-47D = test: NCI 60 cell line panel screen (SRB); assay type: cell-based, human
[1] = mean value over the 60 cell line panel

CC1CCC2C(C)C(CC(O)(CC3OC4OC5(C)CCC6C(C)CCC(C3C)C46OO5)CS(=O)(=O)c3ccc(C(=O)O)cc3)OC3OC4(C)CCC1C32OO4 (stereo not drawn) [Compound 10c, bis-trioxane β-hydroxysulfone benzoic acid]
Log10GI50 Delta (60 cell line panel): −0.73
Log10GI50 Range (60 cell line panel): 3.48
Log10LC50 Delta (60 cell line panel; 60 cell line panel): 1.00
Log10LC50 Range (60 cell line panel; 60 cell line panel): 1.25
Log10TGI50 Delta (60 cell line panel; 60 cell line panel): 2.79
Log10TGI50 Range (60 cell line panel; 60 cell line panel): 4.00
growth inhibition in words (60 cell line panel; colon cancer KM12, ovarian cancer OVCAR 3, breast cancer MDA-MB-435): selectively and strong inhibitory
Log10GI50 MG MID (60 cell line panel; mean over panel): −7.57
Log10LC50 MG MID (60 cell line panel; [1]): −4.55 log10M
Log10TGI50 MG MID (60 cell line panel; [1]): −5.51 log10M
Log10LC50 (K-562; K-562 (Leukemia), LC50: PG=−50): >−4.30 log10M
Log10TGI50 (K-562; K-562 (Leukemia), TGI: PG=0): −4.75 log10M
Log10GI50 (K-562; Leukemia, K-562): <−8.30
Log10GI50 (RPMI-8226; Leukemia, RPMI-8226): <−8.30
Log10LC50 (RPMI-8226; RPMI-8226 (Leukemia), LC50: PG=−50): >−4.30 log10M
Log10TGI50 (RPMI-8226; RPMI-8226 (Leukemia), TGI: PG=0): −5.03 log10M
Log10LC50 (A549/ATCC; A549/ATCC (Non-Small Cell Lung Cancer), LC50: PG=−50): >−4.30 log10M
Log10TGI50 (A549/ATCC; A549/ATCC (Non-Small Cell Lung Cancer), TGI: PG=0): >−4.30 log10M
Log10GI50 (A549/ATCC; Non-Small Cell Lung Cancer, A549/ATCC): −5.28
Log10LC50 (HOP-62; HOP-62 (Non-Small Cell Lung Cancer), LC50: PG=−50): −4.62 log10M
Log10TGI50 (HOP-62; HOP-62 (Non-Small Cell Lung Cancer), TGI: PG=0): −5.01 log10M
Log10GI50 (HOP-62; Non-Small Cell Lung Cancer, HOP-62): <−8.30
Log10LC50 (HOP-92; HOP-92 (Non-Small Cell Lung Cancer), LC50: PG=−50): −4.52 log10M
Log10TGI50 (HOP-92; HOP-92 (Non-Small Cell Lung Cancer), TGI: PG=0): −5.05 log10M
Log10GI50 (HOP-92; Non-Small Cell Lung Cancer, HOP-92): <−8.30
Log10LC50 (NCI-H23; NCI-H23 (Non-Small Cell Lung Cancer), LC50: PG=−50): −4.77 log10M
Log10TGI50 (NCI-H23; NCI-H23 (Non-Small Cell Lung Cancer), TGI: PG=0): −5.25 log10M
Log10GI50 (NCI-H23; Non-Small Cell Lung Cancer, NCI-H23): <−8.30
Log10GI50 (NCI-H322M): −6.03
Log10TGI50 (NCI-H322M): −4.98 log10M
Log10LC50 (NCI-H322M; NCI-H322M (Non-Small Cell Lung Cancer), LC50: PG=−50): −4.57 log10M
Log10GI50 (HCT-116; Colon Cancer, HCT-116): <−8.30
Log10LC50 (HCT-116; HCT-116 (Colon Cancer), LC50: PG=−50): −4.72 log10M
Log10TGI50 (HCT-116; HCT-116 (Colon Cancer), TGI: PG=0): −5.16 log10M
Log10GI50 (HT29; Colon Cancer, HT29): <−8.30
Log10LC50 (HT29; HT29 (Colon Cancer), LC50: PG=−50): >−4.30 log10M
Log10TGI50 (HT29; HT29 (Colon Cancer), TGI: PG=0): >−4.30 log10M
Log10GI50 (SF-268; CNS Cancer, SF-268): <−8.30
Log10LC50 (SF-268; SF-268 (CNS Cancer), LC50: PG=−50): −4.59 log10M
Log10TGI50 (SF-268; SF-268 (CNS Cancer), TGI: PG=0): −5.14 log10M
Log10GI50 (SF-539; CNS Cancer, SF-539): −5.19
Log10LC50 (SF-539; SF-539 (CNS Cancer), LC50: PG=−50): >−4.30 log10M
Log10TGI50 (SF-539; SF-539 (CNS Cancer), TGI: PG=0): −4.66 log10M
Log10LC50 (SNB-75; LC50: PG=−50): −4.32 log10M
Log10TGI50 (SNB-75; TGI: PG=0): −4.80 log10M
Log10GI50 (U251; CNS Cancer, U251): <−8.30
Log10LC50 (U251; U251 (CNS Cancer), LC50: PG=−50): −4.72 log10M
Log10TGI50 (U251; U251 (CNS Cancer), TGI: PG=0): −5.22 log10M
Log10LC50 (MALME-3M; MALME-3M (Melanoma), LC50: PG=−50): −4.80 log10M
Log10TGI50 (MALME-3M; MALME-3M (Melanoma), TGI: PG=0): <−8.30 log10M
Log10GI50 (MALME-3M; Melanoma, MALME-3M): <−8.30
Log10LC50 (M14; M14 (Melanoma), LC50: PG=−50): −4.42 log10M
Log10TGI50 (M14; M-14 (Melanoma), TGI: PG=0): −4.91 log10M
Log10GI50 (M14; Melanoma, M14): <−8.30
Log10GI50 (SK-MEL-28; Melanoma, SK-MEL-28): −5.45
Log10LC50 (SK-MEL-28; SK-MEL-28 (Melanoma), LC50: PG=−50): >−4.30 log10M
Log10TGI50 (SK-MEL-28; SK-MEL-28 (Melanoma), TGI: PG=0): −4.63 log10M
Log10LC50 (IGROVI; LC50: PG=−50): >−4.30 log10M
Log10TGI50 (IGROVI; TGI: PG=0): >−4.30 log10M
Log10LC50 (OVCAR-3; OVCAR-3 (Ovarian Cancer), LC50: PG=−50): −5.01 log10M
Log10TGI50 (OVCAR-3; OVCAR-3 (Ovarian Cancer), TGI: PG=0): <−8.30 log10M
Log10GI50 (OVCAR-3; Ovarian Cancer, OVCAR-3): <−8.30
Log10LC50 (OVCAR-8; OVCAR-8 (Ovarian Cancer), LC50: PG=−50): >−4.30 log10M
Log10TGI50 (OVCAR-8; OVCAR-8 (Ovarian Cancer), TGI: PG=0): −4.48 log10M
Log10GI50 (OVCAR-8; Ovarian Cancer, OVCAR-8): −5.25
Log10GI50 (SK-OV-3; Ovarian Cancer, SK-OV-3): −6.82
Log10LC50 (SK-OV-3; SK-OV-3 (Ovarian Cancer), LC50: PG=−50): −4.47 log10M
Log10TGI50 (SK-OV-3; SK-OV-3 (Ovarian Cancer), TGI: PG=0): −4.92 log10M
Log10GI50 (TK-10; Renal Cancer, TK-10): <−8.30
Log10LC50 (TK-10; TK-10 (Renal Cancer), LC50: PG=−50): −4.62 log10M
Log10TGI50 (TK-10; TK-10 (Renal Cancer), TGI: PG=0): −5.40 log10M
Log10LC50 (PC-3; PC-3 (Prostate Cancer), LC50: PG=−50): −4.62 log10M
Log10TGI50 (PC-3; PC-3 (Prostate Cancer), TGI: PG=0): −5.23 log10M
Log10GI50 (PC-3; Prostate Cancer, PC-3): <−8.30
Log10GI50 (NCI/ADR-RES; Breast Cancer, NCI/ADR-RES): −5.73
Log10LC50 (NCI/ADR-RES; NCI/ADR-RES (Breast Cancer), LC50: PG=−50): −4.63 log10M
Log10TGI50 (NCI/ADR-RES; NCI/ADR-RES (Breast Cancer), TGI: PG=0): −5.09 log10M
Log10GI50 (MDA-MB231/ATCC; Breast Cancer, MDA-MB231/ATCC): <−8.30
Log10LC50 (MDA-MB231/ATCC; MDA-MB231/ATCC (Breast Cancer), LC50: PG=−50): −5.02 log10M
Log10TGI50 (MDA-MB231/ATCC; MDA-MB231/ATCC (Breast Cancer), TGI: PG=0): <−8.30 log10M
Log10GI50 (MDA-MB-435; Breast Cancer, MDA-MB-435): <−8.30
Log10LC50 (MDA-MB-435; MDA-MB-435 (Breast Cancer), LC50: PG=−50): −4.60 log10M
Log10TGI50 (MDA-MB-435; MDA-MB-435 (Breast Cancer), TGI: PG=0): −5.17 log10M
Log10LC50 (BT-549; BT-549 (Breast Cancer), LC50: PG=−50): −4.61 log10M
Log10TGI50 (BT-549; BT-549 (Breast Cancer), TGI: PG=0): −5.54 log10M
Log10GI50 (BT-549; Breast Cancer, BT-549): −6.67
Log10GI50 (T-47D; Breast Cancer, T-47D): <−8.30
Log10LC50 (T-47D; T-47D (Breast Cancer), LC50: PG=−50): >−4.30 log10M
